Test results reported in publication PMC11093748, “De novo identification of CD4^+ T cell epitopes” (Nature Methods, 2024).

Columns and labels:
Format in all cases: cell-based, mouse
TCR15 = assay: I-Ag7 SABR-II library screen, enrichment score; details: for Enrichment score: TCR15, TCR_Mean minus PREDICTED_TCR (from LIB_Mean, SLOPE 0.918454, INTERCEPT 2.00113e-5), PZ37
Source text: (§1) We then asked whether SABR-IIs could be used to present a library of epitopes for CD4^+ T cell antigen discovery. To that end, we constructed a SABR-II library to present epitopes derived from pancreatic islets in I-Ag7 by curating a list of 4,075 published epitopes from the Immune Epitope Database (iedb.org)[50] and a study by Wan et al.[51] (Supplementary Table 1). Of note, this defined library consisted of unmodified epitopes from endogenous proteins, synthetic mimotopes, deamidated epitopes and hybrid insulin peptides (HIPs) that arise from post-translational fusion and are not genetically encoded in vivo[52],[53]. The epitope library was inserted into the I-Ag7 SABR-II backbone through pooled oligonucleotide synthesis, amplification and ligation-free cloning (Extended Data Fig. 3a). The I-Ag7 SABR-II-library was then expressed in NFAT–GFP Jurkat cells. We confirmed that after sequencing, the library accounted for a mean of 708 reads per epitope (Extended Data Fig. 3b). As a proof of concept, we performed co-incubation assays with Jurkat cells expressing the BDC2.5 TCR and sorted the top 1–2% of GFP^+CD69^+ cells at a rate of ~20 min per replicate with three replicates per TCR. We extracted the genomic DNA from sorted cells, amplified the SABR portion of the integrated proviruses and subjected the amplicons to Illumina sequencing (Extended Data Fig. 3c,d). The 1–2% sort gate represents >50-fold enrichment of cognate epitopes with minimal loss of signal (Extended Data Fig. 3e–h). Sequence reads were aligned to the I-Ag7 SABR-II backbone and the corresponding epitopes were scored based on their read counts. For each TCR under investigation, an enrichment score (ES) was determined for all the epitopes in a library. In each experiment, three replicates of a sort with TCR-expressing Jurkat cells were performed and reads were counted post-sequencing. In addition, three replicates of the unsorted library were also sequenced. A linear regression model was built using the unsorted library counts and used to determine the expected abundance of each epitope in the library. The ES was calculated based on the difference between the measured and the expected abundance of each epitope on a per-TCR basis (Fig. 1e). Based on ES values, two quantitative thresholds were used to determine putative cognate epitopes of a given TCR. A high-confidence zone containing clear outliers with a high ES and a low-confidence zone containing weak outliers with a moderately high ES were determined (Fig. 1e). This two-tiered strategy was used to call putative hits from screens. All the top-scoring epitopes for the BDC2.5 TCR were known BDC2.5 ligands containing the WXRM(D/E) motif (Fig. 1f,g, enriched ligands in red), a well-characterized trait of the BDC2.5 TCR[43],[54]–[56]. Across several independent experiments there was limited variation in ES values for the same TCRs and several epitopes fell into high- or low-confidence zones consistently (Extended Data Fig. 4a). Using a different TCR that was isolated from NOD mice, 4-8Ins[57], which recognized the InsB9:23 epitope ([…]), we observed a similar pattern of ES for cognate epitopes (Extended Data Fig. 4b).
(§2) We performed systematic screening of the cloned TCRs against the I-Ag7 SABR-II library. Several TCRs along with a positive control (such as BDC2.5 or 4-8Ins) were screened individually against the library for each sort (Extended Data Fig. 6a and Supplementary Table 4). High- and low-confidence ES zones for each screened TCR were defined by the ES values of the control TCR’s cognate epitopes. For all putative cognate epitopes, single SABR-IIs were constructed, expressed in NFAT–GFP Jurkat cells and used for co-incubation with the corresponding TCRs. Co-incubation assays that yielded a GFP signal higher than that obtained in assays with no TCR were determined to be positive and the epitopes deemed true cognate ligands (Extended Data Fig. 6b,c). […]

TCR11 = assay: I-Ag7 SABR-II library screen, enrichment score; details: for Enrichment score: TCR11, TCR_Mean minus PREDICTED_TCR (from LIB_Mean, SLOPE 0.869084, INTERCEPT 3.21267e-5), PZ51
Source text: as §1, §2

TCR24 = assay: I-Ag7 SABR-II library screen, enrichment score; details: for Enrichment score: TCR_Mean minus PREDICTED_TCR (slope 0.96363, intercept 8.9252e-6 on LIB_Mean), TCR 24, run PZ98
Source text: as §1, §2

TCR30 = assay: I-Ag7 SABR-II library screen, enrichment score; details: for Enrichment score: TCR_Mean minus PREDICTED_TCR (slope 0.934363, intercept 1.61073e-5 on LIB_Mean), TCR 30, run PZ98
Source text: as §1, §2

TCR4 = assay: I-Ag7 SABR-II library screen, enrichment score; details: for Enrichment score: sheet TCR4-PZ44, ES = TCRObserved - TCRPredicted, TCRPredicted = LIBObserved x SLOPE + INTERCEPT, SLOPE 0.903208, INTERCEPT 2.37527e-5
Source text: as §1, §2

TCR37 = assay: I-Ag7 SABR-II library screen, enrichment score; details: for Enrichment score: TCR_Mean minus PREDICTED_TCR (slope 0.904637, intercept 2.34021e-5 on LIB_Mean), TCR 37, run PZ57
Source text: as §1, §2

4-8Ins TCR = assay: I-Ag7 SABR-II library screen, enrichment score
Source text: as §1
For SABR library screens, 3 × 10^6 NFAT–GFP Jurkat cells expressing the SABR library were labeled with CellTrace Violet (BioLegend) according to the manufacturer’s protocol before incubation with 3 × 10^6 Jurkat cells expressing the TCR of interest. These mixtures were incubated in a six-well plate for 16–20 h. Cells were stained with anti-CD69-APC-Cy7 where indicated (BioLegend) and the top 1–2% of GFP^+CD69^+ cells were sorted for genomic DNA extraction, indexing and sequencing (see below). Multiplexed assays were scaled on a per-TCR basis (for example 3 × 10^6 for each of three TCRs against 9 × 10^6 library cells). […]

[1] = tested on: pooled TCR1, TCR2, TCR3, TCR5, TCR7, TCR24, TCR37 with one TCR left out; assay: Multiplexed TCR/library dropout screen, individual ES of each leave-one-out pool; details: for INDIVIDUAL ES LOO_TCR1: leave-one-out pool without TCR1; for INDIVIDUAL ES LOO_TCR2: leave-one-out pool without TCR2; for INDIVIDUAL ES LOO_TCR3: leave-one-out pool without TCR3; for INDIVIDUAL ES LOO_TCR5: leave-one-out pool without TCR5; for INDIVIDUAL ES LOO_TCR7: leave-one-out pool without TCR7; for INDIVIDUAL ES LOO_TCR24: leave-one-out pool without TCR24; for INDIVIDUAL ES LOO_TCR37: leave-one-out pool without TCR37
Source text: Supplement 41592_2024_2255_MOESM7_ESM.xlsx, sheet "leave-one-out analysis" | column: LOO_TCR1; LOO_TCR2; LOO_TCR3; LOO_TCR5; LOO_TCR7; LOO_TCR24; LOO_TCR37

[2] = EXPT1 of 3 biological experiments

Row | Sequence | Enrichment score (TCR15) | Enrichment score (TCR11) | Enrichment score (TCR24) | Enrichment score (TCR30) | Enrichment score (TCR4) | Enrichment score (TCR37) | Enrichment score (4-8Ins TCR; [2]) | Enrichment score (4-8Ins TCR; EXPT2 of 3) | Enrichment score (4-8Ins TCR; EXPT3 of 3) | INDIVIDUAL ES LOO_TCR1 [1] | INDIVIDUAL ES LOO_TCR2 [1] | INDIVIDUAL ES LOO_TCR3 [1] | INDIVIDUAL ES LOO_TCR5 [1] | INDIVIDUAL ES LOO_TCR7 [1] | INDIVIDUAL ES LOO_TCR24 [1] | INDIVIDUAL ES LOO_TCR37 [1] | further results
1 | AAVEEGIVAGGGVTLL | -0.000165 | 9.192e-5 | 0.0001615 | -2.605e-6 | 3.881e-5 | -4.879e-5 | 6.335e-5 | -6.366e-5 | -1.563e-5 | -4.978e-5 | -3.795e-6 | 1.5842e-5 | 3.701e-5 | 1.545e-5 | -1.25e-6 | -5.451e-6 | 
2 | AEKVRNLPAGHGLNAQ | 0.000168 | 0.0002492 | 0.0001713 | 0.0001445 | -5.549e-7 | 0.0002899 | -3.1932e-6 | 0.0001517 | -4.244e-5 | 5.319e-5 | -0.0001199 | -3.193e-5 | 1.335e-5 | -1.1271e-5 | -8.015e-5 | -1.6913e-5 | 
3 | AGGVAVIKAGAATEV | 2.956e-5 | -2.692e-5 | -1.094e-5 | -2.42e-5 | 2.046e-5 | -0.0001031 | 2.615e-5 | -2.489e-5 | 4.9e-5 | 2.749e-5 | 9.403e-5 | -4.985e-5 | 2.576e-5 | 3.872e-6 | -1.653e-5 | 5.688e-5 | 
4 | AKAAVEEGIVAGGGV | 1.733e-5 | 0.0001401 | 2.968e-5 | 8.616e-5 | -0.0001441 | -6.503e-5 | -1.842e-5 | 0.0001302 | -6.807e-5 | -3.982e-5 | -3.046e-5 | -2.304e-5 | -3.485e-6 | 9.492e-5 | 4.6789e-5 | 6.867e-6 | 
5 | ALVREGLRNVAAGANP | -2.061e-5 | -3.213e-5 | -8.9252e-6 | -1.611e-5 | -2.375e-5 | -2.34e-5 | -1.064e-5 | -1.266e-5 | -8.85e-6 | -1.224e-5 | -1.224e-5 | -1.224e-5 | -1.224e-5 | -1.224e-5 | -1.224e-5 | -1.224e-5 | 
6 | LQTLALNAARDP |  |  |  |  |  |  |  |  |  |  |  |  |  |  |  |  | recognition by TCR (screen hit, validated by single SABR-II co-incubation) (TCR15; high-confidence zone): recognized; recognition by TCR (screen hit, validated by single SABR-II co-incubation) (TCR4; high-confidence zone): recognized
7 | SHLVEALYLVCGERG |  |  |  |  |  |  |  |  |  |  |  |  |  |  |  |  | recognition by TCR (screen hit, validated by single SABR-II co-incubation) (TCR11; low-confidence hit): confirmation of reactivity; recognition by TCR (screen hit, validated by single SABR-II co-incubation) (TCR24; high-confidence zone): recognized; recognition by TCR (screen hit, validated by single SABR-II co-incubation) (TCR30; low-confidence hit): confirmation of reactivity; recognition by TCR (screen hit, validated by single SABR-II co-incubation) (TCR37; high-confidence zone): recognized
